Measurements as given in PubChem BioAssay (NCI).
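Five concentrations, 48 hours, 96-well plates. Abbreviation: GI50, concentration required for 50% inhibition of growth. At the TGI there is no net growth.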

Legend:
Test in all cases: growth of human tumour cells (NCI), 48 h
[1] = system: 786-0 renal
[2] = system: A498 renal
[3] = system: A549 NSCLC
[4] = system: ACHN renal
[5] = system: BT-549 breast
[6] = system: CAKI-1 renal
[7] = system: CCRF-CEM leukemia
[8] = system: COLO 205 colon
[9] = system: DU-145 prostate
[10] = system: EKVX NSCLC
[11] = system: HCT-116 colon
[12] = system: HCT-15 colon
[13] = system: HL-60(TB) leukemia
[14] = system: HOP-62 NSCLC
[15] = system: HOP-92 NSCLC
[16] = system: HS 578T breast
[17] = system: HT29 colon
[18] = system: IGROV1 ovarian
[19] = system: K-562 leukemia
[20] = system: KM12 colon
[21] = system: LOX IMVI melanoma
[22] = system: M14 melanoma
[23] = system: MALME-3M melanoma
[24] = system: MCF7 breast
[25] = system: MDA-MB-231 breast
[26] = system: MDA-MB-435
[27] = system: MOLT-4 leukemia
[28] = system: NCI-H226 lung
[29] = system: NCI-H23 lung
[30] = system: NCI-H460 lung
[31] = system: NCI-H522 lung
[32] = system: NCI/ADR-RES ovarian
[33] = system: OVCAR-3 ovarian
[34] = system: OVCAR-4 ovarian
[35] = system: OVCAR-5 ovarian
[36] = system: OVCAR-8 ovarian
[37] = system: PC-3 prostate
[38] = system: RPMI-8226 leukemia
[39] = system: RXF 393 renal
[40] = system: SF-268 CNS
[41] = system: SF-295 CNS
[42] = system: SF-539 CNS
[43] = system: SK-MEL-2 melanoma
[44] = system: SK-MEL-28 melanoma
[45] = system: SK-MEL-5 melanoma
[46] = system: SK-OV-3 ovarian
[47] = system: SN12C renal
[48] = system: SNB-19 CNS
[49] = system: SNB-75 CNS
[50] = system: SR leukemia
[51] = system: SW-620 colon
[52] = system: T-47D breast
[53] = system: TK-10 renal
[54] = system: U251 CNS
[55] = system: UACC-257 melanoma
[56] = system: UACC-62 melanoma
[57] = system: UO-31 renal

## C[As](C)SC1OC(CO)C(O)C1O (stereo not drawn)
[1]
  GI50: 174 nM
  TGI: 655 nM
[2]
  GI50: 516 nM
  TGI: 3620 nM
[3]
  GI50: 2250 nM
  TGI: > 61000 nM
[4]
  GI50: 257 nM
  TGI: 1030 nM
[5]
  GI50: 628 nM
  TGI: 3210 nM
[6]
  GI50: 48.7 nM
  TGI: 402 nM
[7]
  GI50: 259 nM
  TGI: 1130 nM
[8]
  GI50: 505 nM
  TGI: 10800 nM
[9]
  GI50: 189 nM
  TGI: 799 nM
[10]
  GI50: 877 nM
  TGI: 10400 nM
[11]
  GI50: 302 nM
  TGI: 1240 nM
[12]
  GI50: 238 nM
  TGI: 1120 nM
[13]
  GI50: 454 nM
[14]
  GI50: 3580 nM
  TGI: 13400 nM
[15]
  GI50: 88.4 nM
  TGI: 955 nM
[16]
  GI50: 968 nM
  TGI: 7590 nM
[17]
  GI50: 668 nM
  TGI: > 100000 nM
[18]
  GI50: 1320 nM
  TGI: 6560 nM
[19]
  GI50: 131 nM
  TGI: 2030 nM
[20]
  GI50: 2400 nM
  TGI: 13600 nM
[21]
  GI50: 445 nM
  TGI: 1750 nM
[22]
  GI50: 232 nM
  TGI: 767 nM
[23]
  GI50: 84.7 nM
  TGI: 650 nM
[24]
  GI50: 324 nM
  TGI: 1300 nM
[25]
  GI50: 725 nM
  TGI: 3690 nM
[26]
  GI50: 154 nM
  TGI: 746 nM
[27]
  GI50: 174 nM
  TGI: 957 nM
[28]
  GI50: 1180 nM
  TGI: 5210 nM
[29]
  GI50: 610 nM
  TGI: 3890 nM
[30]
  GI50: 1460 nM
  TGI: 11700 nM
[31]
  GI50: 167 nM
  TGI: 477 nM
[32]
  GI50: 825 nM
  TGI: 5750 nM
[33]
  GI50: 62.3 nM
  TGI: 203 nM
[34]
  GI50: 1690 nM
  TGI: 16300 nM
[35]
  GI50: 864 nM
  TGI: 5330 nM
[36]
  GI50: 694 nM
  TGI: 3150 nM
[37]
  GI50: 656 nM
  TGI: 9790 nM
[38]
  GI50: 100 nM
  TGI: 342 nM
[39]
  GI50: 176 nM
  TGI: 2370 nM
[40]
  GI50: 998 nM
  TGI: 5730 nM
[41]
  GI50: 2280 nM
  TGI: 7160 nM
[42]
  GI50: 222 nM
  TGI: 749 nM
[43]
  GI50: 708 nM
  TGI: 2920 nM
[44]
  GI50: 522 nM
  TGI: 5450 nM
[45]
  GI50: 215 nM
  TGI: 583 nM
[46]
  GI50: 6420 nM
  TGI: 22400 nM
[47]
  GI50: 312 nM
  TGI: 1520 nM
[48]
  GI50: 8680 nM
  TGI: > 57600 nM
[49]
  GI50: 912 nM
  TGI: 2620 nM
[50]
  GI50: 213 nM
  TGI: 3130 nM
[51]
  GI50: 391 nM
  TGI: 1610 nM
[52]
  GI50: 3210 nM
  TGI: > 100000 nM
[53]
  GI50: 174 nM
  TGI: 816 nM
[54]
  GI50: 709 nM
  TGI: 3200 nM
[55]
  GI50: 1720 nM
  TGI: 13600 nM
[56]
  GI50: 385 nM
  TGI: 1540 nM
[57]
  GI50: 97.3 nM
  TGI: 555 nM
